Results taken from patent US20060141013A1, “Lysine mixture and apparatus and method for administering lysine” (priority 2002, published 2006).

Assays:
[1] = maximum amount of L-lysine capable of being dissolved in water; type: physicochemical; details: water @ 20 °C
Experimental: Various different concentrations of L-lysine may be used in the mixture. In one embodiment, L-lysine is initially dissolved in water at a concentration of 500 mg/ml. The L-lysine/water solution is then mixed with the palatable base substance at a 1:1 ratio (i.e., 50% solution and 50% palatable base), resulting in an L-lysine concentration of 250 mg/ml. Given that the current recommended dosage of L-lysine is 250 to 1000 mg daily, two 2 ml doses may be administered daily. Alternatively, a single 4 ml dose may be administered (if the cat is willing to consume the 4 ml dose). It should be noted, however, that the underlying principles of the invention are not confined to any particular concentration of L-lysine or any particular dosage. For example, any concentration up to the maximum amount capable of being dissolved in water may be used (e.g., 64.2 gm/100 ml water @ 20 °C, or approximately 650 mg/ml). Moreover, the L-lysine solution may then be added to the palatable base at various different ratios, based on the desired L-lysine concentration and/or the desired consistency of the final mixture (e.g., 2:1, 3:1, 1:2, . . . etc).

[2] = water @ 20 °C; cited from earlier work
[3] = system: Feline herpesvirus type I (FHV-1); details: cats maintained on oral L-lysine; cited from earlier work

NCCCC[C@H](N)C(=O)O [L-lysine]
maximum amount capable of being dissolved in water (approximate concentration) [1]: approximately 650 mg/ml | maximum amount capable of being dissolved in water [2]: 64.2 gm/100 ml | severity and duration of infection if signs of the virus reoccur [3]: milder and of a shorter duration | time between ocular viral flare-ups [3]: longer period of time between ocular viral flare-ups
